# Test results from EP4299736A2, “HYDROLASES AND USES THEREOF” (Vilnius University, priority 2022, dated 2024).
# Assays:
# Experiment in all cases: Spectrophotometric assay of hydrolytic activity (kinetic parameters)
# Format in all cases: biochemical
# [1] = molecular target: hydrolase variant Seq ID No:13 (site-directed mutant) (uncultured bacterium, UniProt A0ACD6BAS6, form not given/G85I); conditions: potassium phosphate buffer, pH 7.5, 22 °C; 310 nm (BzdC) or 290 nm (dC)
# From the text: (§1) Mutations in the hydrolase's genes were introduced using methodology based on "Phusion™ Site-Directed Mutagenesis Kit" (Thermo Fisher Scientific). For specific mutagenesis, primer pairs meant to amplify the whole plasmid with the target protein gene, where one primer has miss-matched base pairs in the middle, were created (Fw/Rv): […]/[…] (SEQ ID NO:10); [formula] [formula] […]/[…] (SEQ ID NO:13); [formula] [formula] […]/[…] and […]/[…] (SEQ ID NO: 16, SEQ ID NO: 17, SEQ ID NO: 18); [formula] […]/[…] (SEQ ID NO: 21); [formula] […]/[…] (SEQ ID NO: 23); […]/[…] (SEQ ID NO: 24).
# (§2) For the spectrophotometric assay, the reaction was started by adding an appropriate amount of protein to potassium phosphate buffer, pH 7.5 supplemented with 0.3, 0.15, 0.1, 0.075, 0.05, 0.0375, 0.025, 0.0125 mM N^4-benzoyl-2'-deoxycytidine, or 1, 0.8, 0.5, 0.4, 0.25, 0.2, 0.1, 0.05 mM 2'-deoxycytidine. Then, decreases in absorbance at either 310 for N^4-benzoyl-2'-deoxycytidine or 290 nm for 2'-deoxycytidine were recorded at 22 °C. Kinetic parameters (Table x) were calculated using Imfit-py 1.0.2 software fitting the experimental data to a simple Michaelis-Menten kinetics scheme. Table 5. Kinetic parameters of hydrolases. Substrate: BzdC - N4-benzoyl-2'-deoxycytidine; dC-2'-deoxycytidine.
# [2] = molecular target: hydrolase variant Seq ID No: 12 (site-directed mutant) (uncultured bacterium, UniProt A0ACD6BAS6); conditions: potassium phosphate buffer, pH 7.5, 22 °C; 310 nm; unit not given
# From the text: as §1, §2
# [3] = molecular target: hydrolase variant Seq ID No: 10 (site-directed mutant) (uncultured bacterium, UniProt A0ACD6BAS6, DEL127-130, form not given); conditions: potassium phosphate buffer, pH 7.5, 22 °C, 310 nm
# From the text: as §1, §2
# [4] = molecular target: hydrolase variant Seq ID No: 15 (site-directed mutant) (uncultured bacterium, UniProt A0ACD6BAS6); conditions: potassium phosphate buffer, pH 7.5, 22 °C, 310 nm (BzdC) or 290 nm (dC)
# From the text: as §1, §2
# [5] = molecular target: hydrolase variant Seq ID No: 11 (site-directed mutant) (uncultured bacterium, UniProt A0ACD6BAS6); conditions: potassium phosphate buffer, pH 7.5, 22 °C, 310 nm
# From the text: as §1, §2
# [6] = molecular target: hydrolase Seq ID No: 1 (metagenomic, wild-type hydrolase) (uncultured bacterium, UniProt A0ACD6BAS6); conditions: potassium phosphate buffer, pH 7.5, 22 °C
# Description: as §2
# [7] = tested on: hydrolase Seq ID No: 3 (metagenomic hydrolase); conditions: potassium phosphate buffer, pH 7.5, 22 °C
# Description: as §2
# [8] = 310 nm (BzdC) or 290 nm (dC), unit not given
# [9] = absorbance decrease at 310 nm (BzdC) or 290 nm (dC), Michaelis-Menten fit
# hydrolase Seq ID No: 1 (metagenomic, wild-type hydrolase), sequence (A0ACD6BAS6 entry or part of it): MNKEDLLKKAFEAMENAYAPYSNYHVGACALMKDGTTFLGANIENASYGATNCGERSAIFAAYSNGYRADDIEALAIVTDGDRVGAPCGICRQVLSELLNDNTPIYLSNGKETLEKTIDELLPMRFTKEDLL
# hydrolase variant Seq ID No: 11 (site-directed mutant), sequence (A0ACD6BAS6 entry or part of it, change not shown): as the sequence (A0ACD6BAS6 entry or part of it) above
# hydrolase variant Seq ID No: 15 (site-directed mutant), sequence (A0ACD6BAS6 entry or part of it, change not shown): as the sequence (A0ACD6BAS6 entry or part of it) above
# hydrolase variant Seq ID No: 10 (site-directed mutant), sequence (A0ACD6BAS6 entry or part of it DEL127-130): as the sequence (A0ACD6BAS6 entry or part of it) above
# hydrolase variant Seq ID No:13 (site-directed mutant), sequence (A0ACD6BAS6 entry or part of it G85I, form open): as the sequence (A0ACD6BAS6 entry or part of it) above
# hydrolase variant Seq ID No: 12 (site-directed mutant), sequence (A0ACD6BAS6 entry or part of it, change not shown): as the sequence (A0ACD6BAS6 entry or part of it) above
smiles,measurement,setting,value
"O=C(Nc1ccn([C@H]2C[C@H](O)[C@@H](CO)O2)c(=O)n1)c1ccccc1 [BzdC, N4-benzoyl-2'-deoxycytidine]",kcat,[1],(2.36 ± 0.01) × 10 ^-1 s^-1
same,Vmax,[2],(1.19 ± 0.15) × 10^-4
same,kcat,[3],(5.41 ± 0.23) × 10^-2 s^-1
same,Vmax,[3]; unit not given,(5.49 ± 0.23) × 10^-5
same,kcat,[4],(1.22 ± 0.09) × 10^-2 s^-1
same,Vmax,[4]; unit not given,(3.17 ± 0.25) × 10^-5
same,kcat,[5],(3.88 ± 0.80) × 10^-2 s^-1
same,Vmax,[5]; unit not given,(4.56 ± 0.093) × 10^-5
same,kcat,[6]; 310 nm (BzdC) or 290 nm (dC),(5.04 ± 0.4) ×10^-1 s^-1
same,Vmax,[6]; [8],(1.00 ± 0.08) × 10^-4
same,Km,[6]; [9],115 µM
same,kcat,[7]; 310 nm (BzdC) or 290 nm (dC),(3.81 +/- 0.24) × 10 ^-1 s^-1
same,Vmax,[7]; [8],(6.55 ± 0.41) × 10^-5
same,Km,[7]; [9],46.5 µM
